Test system: ASK1 pathway (p38 phosphorylation) in the rat RV
Assay: Auranofin model of oxidative stress-induced ASK1 activation in the rat right ventricle (phospho-p38 Western blot)
Assay type: in vivo, Sprague-Dawley rats
Excerpt: IP90 was used as a loading control.
In this study, the auranofin model of oxidative stress-induced ASK1 activation was used to determine the effects of ASK1 inhibitor in preventing or inhibiting oxidative stress-induced activation of the ASK1 pathway in the rat RV. ASK1 is normally bound and repressed by the thiol-containing antioxidant protein thioredoxin 1 (Trx1). […] When administered in vivo, auranofin results in ASK1-mediated phosphorylation of p38MAPK, which in turn promotes induction of cytokine/chemokine gene expression.
Rats were then challenged with a single intraperitoneal (ip) injection of auranofin at 30 mg/kg to induce oxidative stress. The levels of phosphorylated p38 in RV lysates were evaluated by Western blot analysis and normalized to IP90.

Row | SMILES | auranofin-induced p38 phosphorylation in RV (single oral dose 0.3, 1, 3 or 10 mg/kg, then auranofin 30 mg/kg ip) | normalized level of phosphorylated p38 in RV (p-p38/IP90) (auranofin 30 mg/kg ip alone, mean±SEM, vehicle group 1.0±0.1)
1 | Cc1cc(F)c(C(=O)Nc2cccc(-c3nncn3C(C)C)n2)cc1-n1cnc(C2CC2)c1 [Compound 3, 5-(4-cyclopropyl-1H-imidazol-1-yl)-2-fluoro-N-(6-(4-isopropyl-4H-1,2,4-triazol-3-yl)pyridin-2-yl)-4-methylbenzamide] | dose-dependent reduction | –
2 | CC[PH](CC)(CC)[Au][S][C@@H]1O[C@H](COC(C)=O)[C@@H](OC(C)=O)[C@H](OC(C)=O)[C@H]1OC(C)=O [auranofin, 2,3,4,6-tetra-O-acetyl-1-thio-β-d-glucopyranosato-S-(triethylphosphine) gold] | – | 2.0±0.2

— patent US20160166556A1, “METHODS OF TREATING PULMONARY HYPERTENSION” (Gilead Sciences, Inc., priority 2014, published 2016)
